Source: ChEMBL document CHEMBL1149942, “Characterization of the taxol structure-activity profile for the locus of the A-ring side chain” (1994)

Columns and labels:
J774 = assay: In vitro cytotoxicity against J774.2 cells after 72 hr incubation.; type: functional; conditions: Mus musculus, J774, 72 h; read-out: ED50 (the source's name)
[1] = Activity in calf brain microtubule protein assembly assay.; type: functional, Bos taurus
J774.2 = assay: Compound was tested for cytotoxicity against J774.2 cells, concentration required to inhibit cell division by 50% after 72 hr incubation; type: functional; conditions: Mus musculus, J774.2, 72 h; read-out: ED50 (the source's name)

**Q.** What does the source list for `CC(=O)O[C@H]1C(=O)[C@@]2(C)C([C@H](OC(=O)c3ccccc3)[C@]3(O)C[C@H](OC(=O)[C@H](O)[C@@H](NC(=O)c4ccc(C(=O)c5ccccc5)cc4)c4ccccc4)C(C)=C1C3(C)C)[C@]1(OC(C)=O)CO[C@@H]1C[C@@H]2O` (some centres not stated)?
**A.** EC50 (J774): 1.5 µM; Assembly [1]: 39%

**Q.** Which results are given for `CC(=O)O[C@H]1C(=O)[C@@]2(C)C([C@H](OC(=O)c3ccccc3)[C@]3(O)C[C@H](OC(=O)[C@H](O)CNC(=O)c4ccc(N=[N+]=[N-])cc4)C(C)=C1C3(C)C)[C@]1(OC(C)=O)CO[C@@H]1C[C@@H]2O` (some centres not stated)?
**A.** EC50 (J774): 20 µM; Assembly [1]: 25%

**Q.** With `CC(=O)O[C@H]1C(=O)[C@@]2(C)C([C@H](OC(=O)c3ccccc3)[C@]3(O)C[C@H](OC(=O)[C@H](O)CNC(=O)c4ccccc4)C(C)=C1C3(C)C)[C@]1(OC(C)=O)CO[C@@H]1C[C@@H]2O` (some centres not stated) as the compound, how does the EC50 (J774) read?
**A.** The EC50 was 20 µM.

**Q.** And the Assembly [1]?
**A.** Its Assembly is 60%.

**Q.** With `CC(=O)O[C@H]1C(=O)[C@@]2(C)C([C@H](OC(=O)c3ccccc3)[C@]3(O)C[C@H](OC(=O)[C@H](O)[C@@H](NC(=O)OCc4ccccc4)c4ccccc4)C(C)=C1C3(C)C)[C@]1(OC(C)=O)CO[C@@H]1C[C@@H]2O` (some centres not stated) as the compound, how does the EC50 (J774) read?
**A.** The EC50 was 0.19 µM.

**Q.** And the Assembly [1]?
**A.** The Assembly was 94%.

**Q.** With `CC(=O)O[C@H]1C(=O)[C@@]2(C)C([C@H](OC(=O)c3ccccc3)[C@]3(O)C[C@H](OC(=O)[C@H](O)CNC(=O)C(C)(C)C)C(C)=C1C3(C)C)[C@]1(OC(C)=O)CO[C@@H]1C[C@@H]2O` (some centres not stated) as the compound, how does the EC50 (J774) read?
**A.** Its EC50 is 40 µM.

**Q.** And the Assembly [1]?
**A.** The Assembly was 28%.

**Q.** What does the source list for `CC(=O)O[C@H]1C(=O)[C@@]2(C)C([C@H](OC(=O)c3ccccc3)[C@]3(O)C[C@H](OC(=O)[C@H](O)[C@@H](NC(=O)c4ccc(N=[N+]=[N-])cc4)c4ccccc4)C(C)=C1C3(C)C)[C@]1(OC(C)=O)CO[C@@H]1C[C@@H]2O` (some centres not stated)?
**A.** EC50 (J774): 0.28 µM; Assembly [1]: 90%

**Q.** Which EC50 (J774) does the source give for `CC(=O)O[C@H]1C(=O)[C@@]2(C)C([C@H](OC(=O)c3ccccc3)[C@]3(O)C[C@H](OC(=O)[C@H](O)[C@@H](NC(=O)c4ccc(C(C)=O)cc4)c4ccccc4)C(C)=C1C3(C)C)[C@]1(OC(C)=O)CO[C@@H]1C[C@@H]2O` (some centres not stated) here?
**A.** Its EC50 is 1.6 µM.

**Q.** What about the Assembly [1] of the same compound?
**A.** Its Assembly is 84%.

**Q.** With `CC(=O)O[C@H]1C(=O)[C@@]2(C)C([C@H](OC(=O)c3ccccc3)[C@]3(O)C[C@H](OC(=O)[C@H](O)CNC(=O)OC(C)(C)C)C(C)=C1C3(C)C)[C@]1(OC(C)=O)CO[C@@H]1C[C@@H]2O` (some centres not stated) as the compound, how does the EC50 (J774) read?
**A.** Its EC50 is 2 µM.

**Q.** And the Assembly [1]?
**A.** The Assembly was 51%.

**Q.** Which results are given for `CC(=O)O[C@H]1C(=O)[C@@]2(C)C([C@H](OC(=O)c3ccccc3)[C@]3(O)C[C@H](OC(=O)[C@H](O)[C@@H](NC(=O)c4ccccc4O)c4ccccc4)C(C)=C1C3(C)C)[C@]1(OC(C)=O)CO[C@@H]1C[C@@H]2O` (some centres not stated)?
**A.** EC50 (J774): 0.56 µM; Assembly [1]: 93%

**Q.** Which EC50 (J774.2) does the source give for `CCCCCC(=O)NC[C@@H](O)C(=O)O[C@H]1C[C@@]2(O)[C@@H](OC(=O)c3ccccc3)C3[C@](C)(C(=O)[C@H](OC(C)=O)C(=C1C)C2(C)C)[C@@H](O)C[C@H]1OC[C@@]31OC(C)=O` (some centres not stated) here?
**A.** Its EC50 is 26 µM.

**Q.** And the Assembly [1]?
**A.** Its Assembly is 34%.

**Q.** Which EC50 (J774.2) does the source give for `CC(=O)O[C@H]1C(=O)[C@@]2(C)C([C@H](OC(=O)c3ccccc3)[C@]3(O)C[C@H](OC(=O)[C@H](O)CNC(=O)c4ccc5ccccc5c4)C(C)=C1C3(C)C)[C@]1(OC(C)=O)CO[C@@H]1C[C@@H]2O` (some centres not stated) here?
**A.** Its EC50 is 26 µM.

**Q.** What about the Assembly [1] of the same compound?
**A.** Its Assembly is 28%.

**Q.** Which results are given for `CC(=O)O[C@H]1C(=O)[C@@]2(C)C([C@H](OC(=O)c3ccccc3)[C@]3(O)C[C@H](OC(=O)[C@H](O)CNC(=O)C4CCCCC4)C(C)=C1C3(C)C)[C@]1(OC(C)=O)CO[C@@H]1C[C@@H]2O` (some centres not stated)?
**A.** EC50 (J774): 16 µM; Assembly [1]: 33%

**Q.** What does the source list for `CC(=O)O[C@H]1C(=O)[C@@]2(C)C([C@H](OC(=O)c3ccccc3)[C@]3(O)C[C@H](OC(=O)[C@H](O)CNC(=O)OCc4ccccc4)C(C)=C1C3(C)C)[C@]1(OC(C)=O)CO[C@@H]1C[C@@H]2O` (some centres not stated)?
**A.** EC50 (J774): 16 µM; Assembly [1]: 20%

**Q.** Which EC50 (J774) does the source give for `CC(=O)O[C@H]1C(=O)[C@@]2(C)C([C@H](OC(=O)c3ccccc3)[C@]3(O)C[C@H](OC(=O)[C@H](O)[C@@H](NC(=O)c4ccc(C(F)(F)F)cc4)c4ccccc4)C(C)=C1C3(C)C)[C@]1(OC(C)=O)CO[C@@H]1C[C@@H]2O` (some centres not stated) here?
**A.** Its EC50 is 0.9 µM.

**Q.** And the Assembly [1]?
**A.** The Assembly was 80%.

**Q.** Which EC50 (J774) does the source give for `CC(=O)O[C@H]1C(=O)[C@@]2(C)C([C@H](OC(=O)c3ccccc3)[C@]3(O)C[C@H](OC(=O)[C@H](O)CNC(=O)C45CC6CC(CC(C6)C4)C5)C(C)=C1C3(C)C)[C@]1(OC(C)=O)CO[C@@H]1C[C@@H]2O` (some centres not stated) here?
**A.** The EC50 was 11 µM.

**Q.** What about the Assembly [1] of the same compound?
**A.** The Assembly was 24%.

**Q.** With `CC(=O)O[C@H]1C(=O)[C@@]2(C)C([C@H](OC(=O)c3ccccc3)[C@]3(O)C[C@H](OC(=O)[C@H](O)CNC(=O)c4ccc(C(F)(F)F)cc4)C(C)=C1C3(C)C)[C@]1(OC(C)=O)CO[C@@H]1C[C@@H]2O` (some centres not stated) as the compound, how does the EC50 (J774) read?
**A.** Its EC50 is 23 µM.

**Q.** What about the Assembly [1] of the same compound?
**A.** Its Assembly is 20%.

**Q.** Which EC50 (J774) does the source give for `CC(=O)O[C@@]12CO[C@@H]1C[C@H](O)[C@@]1(C)C(=O)[C@H](O)C3=C(C)[C@@H](OC(=O)[C@H](O)[C@@H](NC(=O)OC(C)(C)C)c4ccccc4)C[C@@](O)([C@@H](OC(=O)c4ccccc4)[C@H]21)C3(C)C.O.O.O` [DOCETAXEL] here?
**A.** Its EC50 is 0.05 µM.

**Q.** What about the Assembly [1] of the same compound?
**A.** Its Assembly is 105%.

**Q.** For `Nc1nc2c(ncn2[C@@H]2O[C@H](COP(=O)(O)OP(=O)(O)OP(=O)(O)O)[C@@H](O)[C@H]2O)c(=O)[nH]1` [GUANOSINE TRIPHOSPHATE], which Assembly [1] is on record?
**A.** The Assembly was 70%.

**Q.** Which results are given for `CC(=O)O[C@H]1C(=O)[C@@]2(C)[C@H]([C@H](OC(=O)c3ccccc3)[C@]3(O)C[C@H](OC(=O)[C@H](O)[C@@H](NC(=O)c4ccccc4)c4ccccc4)C(C)=C1C3(C)C)[C@]1(OC(C)=O)CO[C@@H]1C[C@@H]2O` [PACLITAXEL]?
**A.** EC50 (J774): 0.09 µM; Assembly [1]: 100%
